Measurements as given in patent US10004701B2, “Methods and compositions for treating infection” (UNIVERSITY OF ROCHESTER, priority 2012, dated 2018).
Structures can show the parent of a compound that is named as a salt. Where two headings read alike, the source gives them in different places.

Experiments:
Experiment in all cases: AK assay 384-well format, Prestwick library screening
[1] = system: E. cloacae; format: cell-based, Enterobacter cloacae; details: for fold induction at 50 µM: Enterobacter cloacae, 3 h
[2] = system: A. baumannii strain 98-37-09; format: cell-based, Acinetobacter baumannii; details: for fold induction at 50 µM: Acinetobacter baumannii, 983709, 3 h
[3] = system: K. pneumoniae; format: cell-based, Klebsiella pneumoniae; details: for fold induction at 50 µM: Klebsiella pneumoniae, 3 h
[4] = system: E. faecium; format: cell-based, Enterococcus faecium; details: for fold induction at 50 µM: Enterococcus faecium, 3 h
[5] = system: E. coli; format: cell-based, Escherichia coli; details: 50 μM final drug concentration; for fold induction at 50 µM: Escherichia coli, 3 h
[6] = system: S. aureus strain USA300-0114; format: cell-based, Staphylococcus aureus; details: for fold induction at 50 µM: Staphylococcus aureus, USA300, 3 h
[7] = system: P. aeruginosa; format: cell-based, Pseudomonas aeruginosa; details: for fold induction at 50 µM: Pseudomonas aeruginosa, 3 h
[8] = 50 μM final drug concentration, cutoff for positive-scoring molecules 3-fold increase, read-out: AK-based Prestwick Library Screening Results, E. cloacae (fold increase in extracellular AK activity)
[9] = 50 μM final drug concentration, cutoff for positive-scoring molecules 3-fold increase, read-out: AK-based Prestwick Library Screening Results, A. baumannii (fold increase in extracellular AK activity)
[10] = 50 μM final drug concentration, cutoff for positive-scoring molecules 3-fold increase, read-out: AK-based Prestwick Library Screening Results, K. pneumoniae (fold increase in extracellular AK activity)
[11] = 50 μM final drug concentration, cutoff for positive-scoring molecules 3-fold increase, read-out: AK-based Prestwick Library Screening Results, E. faecium (fold increase in extracellular AK activity)
[12] = cutoff for positive-scoring molecules 3-fold increase, read-out: AK-based Prestwick Library Screening Results, E. coli (fold increase in extracellular AK activity)
[13] = 50 μM final drug concentration, cutoff for positive-scoring molecules 3-fold increase, read-out: AK-based Prestwick Library Screening Results, S. aureus (fold increase in extracellular AK activity)
[14] = 50 μM final drug concentration, cutoff for positive-scoring molecules 3-fold increase, read-out: AK-based Prestwick Library Screening Results, P. aeruginosa (fold increase in extracellular AK activity)
[15] = 50 μM final drug concentration, 384-well format, cutoff for positive-scoring molecules 3-fold increase, read-out: AK-based Prestwick Library Screening Results, E. cloacae (increase in extracellular AK activity)
[16] = 50 μM final drug concentration, 384-well format, cutoff for positive-scoring molecules 3-fold increase, read-out: AK-based Prestwick Library Screening Results, A. baumannii (increase in extracellular AK activity)
[17] = 50 μM final drug concentration, 384-well format, cutoff for positive-scoring molecules 3-fold increase, read-out: AK-based Prestwick Library Screening Results, K. pneumoniae (increase in extracellular AK activity)
[18] = 50 μM final drug concentration, 384-well format, cutoff for positive-scoring molecules 3-fold increase, read-out: AK-based Prestwick Library Screening Results, E. faecium (increase in extracellular AK activity)
[19] = 384-well format, cutoff for positive-scoring molecules 3-fold increase, read-out: AK-based Prestwick Library Screening Results, E. coli (increase in extracellular AK activity)
[20] = 50 μM final drug concentration, 384-well format, cutoff for positive-scoring molecules 3-fold increase, read-out: AK-based Prestwick Library Screening Results, S. aureus (increase in extracellular AK activity)
[21] = 50 μM final drug concentration, 384-well format, cutoff for positive-scoring molecules 3-fold increase, read-out: AK-based Prestwick Library Screening Results, P. aeruginosa (increase in extracellular AK activity)
[22] = 50 μM final drug concentration, planktonic, cutoff for positive 3-fold increase

Cc1cc(C(=O)NNCc2ccccc2)no1 [Isocarboxazid]
fold induction at 50 µM [1, 8]: 1.5
fold induction at 50 µM [2, 9]: 1.1
fold induction at 50 µM [3, 10]: 1.1
fold induction at 50 µM [4, 11]: 1
fold induction at 50 µM [5, 12]: 1.1
fold induction at 50 µM [6, 13]: 1.5
fold induction at 50 µM [7, 14]: 1.1

Clc1ccc(C(Cn2ccnc2)OCc2c(Cl)cccc2Cl)c(Cl)c1 (stereo not drawn) [Isoconazole]
fold induction at 50 µM [1, 15]: 1.7
fold induction at 50 µM [2, 16]: 5.6
fold induction at 50 µM [3, 17]: 1.4
fold induction at 50 µM [4, 18]: 1.8
fold induction at 50 µM [5, 19]: 1.8
fold induction at 50 µM [6, 20]: 5.2
fold induction at 50 µM [7, 21]: 1.3

COc1ccc2c(c1O)-c1c(OC)c(OC)cc3c1[C@H](C2)N(C)CC3 [Isocorydine (+)]
AK-based Prestwick Library Screening Results, E. cloacae (increase in extracellular AK activity) ([1]; planktonic E. cloacae, 50 μM final drug concentration, cutoff for positive-scoring molecules 3-fold increase): 1.3
AK-based Prestwick Library Screening Results, A. baumannii (increase in extracellular AK activity) ([2]; planktonic A. baumannii, 50 μM final drug concentration, cutoff for positive-scoring molecules 3-fold increase): 0.9
AK-based Prestwick Library Screening Results, K. pneumoniae (increase in extracellular AK activity) ([3]; planktonic K. pneumoniae, 50 μM final drug concentration, cutoff for positive-scoring molecules 3-fold increase): 0.7
AK-based Prestwick Library Screening Results, E. faecium (increase in extracellular AK activity) ([4]; planktonic E. faecium, 50 μM final drug concentration, cutoff for positive-scoring molecules 3-fold increase): 0.9
AK-based Prestwick Library Screening Results, E. coli (increase in extracellular AK activity) ([5]; planktonic E. coli, cutoff for positive-scoring molecules 3-fold increase): 0.9
AK-based Prestwick Library Screening Results, S. aureus (increase in extracellular AK activity) ([6]; planktonic S. aureus, 50 μM final drug concentration, cutoff for positive-scoring molecules 3-fold increase): 0.7
AK-based Prestwick Library Screening Results, P. aeruginosa (increase in extracellular AK activity) ([7]; planktonic P. aeruginosa, 50 μM final drug concentration, cutoff for positive-scoring molecules 3-fold increase): 0.8

CC(=O)OCC(=O)[C@@]1(O)CC[C@H]2[C@@H]3CCC4=CC(=O)C=C[C@]4(C)[C@@]3(F)[C@@H](O)C[C@@]21C [Isoflupredone acetate]
fold induction at 50 µM [1, 15]: 0.4
fold induction at 50 µM [2, 16]: 0.4
fold induction at 50 µM [3, 17]: 0.5
fold induction at 50 µM [4, 18]: 0.9
fold induction at 50 µM [5, 19]: 0.5
fold induction at 50 µM [6, 20]: 0.4
fold induction at 50 µM [7, 21]: 0.4

CNC(C)CCC=C(C)C.CNC(C)CCC=C(C)C.O=C(O)[C@@H](O)[C@H](O)[C@H](O)[C@@H](O)C(=O)O [Isometheptene mutate]
AK-based Prestwick library screening result, E. cloacae (fold increase in extracellular AK activity) [1]: 1.2
AK-based Prestwick library screening result, A. baumannii (fold increase in extracellular AK activity) [2]: 1.5
AK-based Prestwick library screening result, K. pneumoniae (fold increase in extracellular AK activity) [3]: 1.1
AK-based Prestwick library screening result, E. faecium (fold increase in extracellular AK activity) [4]: 1.0
AK-based Prestwick library screening result, E. coli (fold increase in extracellular AK activity) ([5]; planktonic E. coli, […]): 1.2
AK-based Prestwick library screening result, S. aureus (fold increase in extracellular AK activity) [6]: 1.2
AK-based Prestwick library screening result, P. aeruginosa (fold increase in extracellular AK activity) [7]: 1.1

NNC(=O)c1ccncc1 [Isoniazid]
fold induction at 50 µM [1, 15]: 0.6
fold induction at 50 µM [2, 16]: 0.6
fold induction at 50 µM [3, 17]: 0.6
fold induction at 50 µM [4, 18]: 1
fold induction at 50 µM [5, 19]: 0.6
fold induction at 50 µM [6, 20]: 0.7
fold induction at 50 µM [7, 21]: 0.6

CC(C)[N+](C)(CCC(C(N)=O)(c1ccccc1)c1ccccc1)C(C)C [Isopropamide iodide]
fold induction at 50 µM [1, 8]: 1.5
fold induction at 50 µM [2, 9]: 1
fold induction at 50 µM [3, 10]: 1.1
fold induction at 50 µM [4, 11]: 1.1
fold induction at 50 µM [5, 12]: 1.3
fold induction at 50 µM [6, 13]: 1.2
fold induction at 50 µM [7, 14]: 1.2

Cc1c(NC(C)C)c(=O)n(-c2ccccc2)n1C.Cl [Isopyrin hydrochloride]
AK-based Prestwick Library Screening Results, E. cloacae (fold increase in extracellular AK activity) [1, 22]: 0.3
AK-based Prestwick Library Screening Results, A. baumannii (fold increase in extracellular AK activity) [2, 22]: 0.3
AK-based Prestwick Library Screening Results, K. pneumoniae (fold increase in extracellular AK activity) [3, 22]: 0.4
AK-based Prestwick Library Screening Results, E. faecium (fold increase in extracellular AK activity) [4, 22]: 0.8
AK-based Prestwick Library Screening Results, E. coli (fold increase in extracellular AK activity) ([5]; planktonic, cutoff for positive 3-fold increase): 0.4
AK-based Prestwick Library Screening Results, S. aureus (fold increase in extracellular AK activity) [6, 22]: 0.4
AK-based Prestwick Library Screening Results, P. aeruginosa (fold increase in extracellular AK activity) [7, 22]: 0.4

CC1=C(/C=C/C(C)=C/C=C/C(C)=C\C(=O)O)C(C)(C)CCC1 [Isotretinoin]
fold induction at 50 µM [1, 15]: 0.9
fold induction at 50 µM [2, 16]: 0.7
fold induction at 50 µM [3, 17]: 0.6
fold induction at 50 µM [4, 18]: 1
fold induction at 50 µM [5, 19]: 0.7
fold induction at 50 µM [6, 20]: 0.6
fold induction at 50 µM [7, 21]: 0.8

Cc1cc(NC(=O)C2=C(O)c3ccccc3S(=O)(=O)N2C)no1 [Isoxicam]
fold induction at 50 µM [1, 15]: 1.4
fold induction at 50 µM [2, 16]: 1
fold induction at 50 µM [3, 17]: 1
fold induction at 50 µM [4, 18]: 1
fold induction at 50 µM [5, 19]: 1.2
fold induction at 50 µM [6, 20]: 1
fold induction at 50 µM [7, 21]: 1

CC(COc1ccccc1)NC(C)C(O)c1ccc(O)cc1 (stereo not drawn) [Isoxsuprine hydrochloride]
fold induction at 50 µM ([1]; planktonic E. cloacae, 50 μM final drug concentration, 384-well, cutoff for positive-scoring molecules 3-fold increase, read-out: AK-based Prestwick Library Screening Results: E. cloacae (increase in extracellular AK activity)): 1.5
fold induction at 50 µM ([2]; planktonic A. baumannii, 50 μM final drug concentration, 384-well, cutoff for positive-scoring molecules 3-fold increase, read-out: AK-based Prestwick Library Screening Results: A. baumannii (increase in extracellular AK activity)): 1.5
fold induction at 50 µM ([3]; planktonic K. pneumoniae, 50 μM final drug concentration, 384-well, cutoff for positive-scoring molecules 3-fold increase, read-out: AK-based Prestwick Library Screening Results: K. pneumoniae (increase in extracellular AK activity)): 1
fold induction at 50 µM ([4]; planktonic E. faecium, 50 μM final drug concentration, 384-well, cutoff for positive-scoring molecules 3-fold increase, read-out: AK-based Prestwick Library Screening Results: E. faecium (increase in extracellular AK activity)): 1
fold induction at 50 µM ([5]; planktonic E. coli, 384-well, cutoff for positive-scoring molecules 3-fold increase, read-out: AK-based Prestwick Library Screening Results: E. coli (increase in extracellular AK activity)): 1.1
fold induction at 50 µM ([6]; planktonic S. aureus, 50 μM final drug concentration, 384-well, cutoff for positive-scoring molecules 3-fold increase, read-out: AK-based Prestwick Library Screening Results: S. aureus (increase in extracellular AK activity)): 1.1
fold induction at 50 µM ([7]; planktonic P. aeruginosa, 50 μM final drug concentration, 384-well, cutoff for positive-scoring molecules 3-fold increase, read-out: AK-based Prestwick Library Screening Results: P. aeruginosa (increase in extracellular AK activity)): 1.1

COC(=O)C1=C(C)NC(C)=C(C(=O)OC(C)C)C1c1cccc2nonc12 (stereo not drawn) [Isradipine]
fold induction at 50 µM ([1]; planktonic E. cloacae, 50 μM final drug concentration, positive cutoff 3-fold increase, read-out: AK-based Prestwick library screening result, E. cloacae (fold increase in extracellular AK activity)): 1.4
fold induction at 50 µM ([2]; planktonic A. baumannii, 50 μM final drug concentration, positive cutoff 3-fold increase, read-out: AK-based Prestwick library screening result, A. baumannii (fold increase in extracellular AK activity)): 1.2
fold induction at 50 µM ([3]; planktonic K. pneumoniae, 50 μM final drug concentration, positive cutoff 3-fold increase, read-out: AK-based Prestwick library screening result, K. pneumoniae (fold increase in extracellular AK activity)): 1.1
fold induction at 50 µM ([4]; planktonic E. faecium, 50 μM final drug concentration, positive cutoff 3-fold increase, read-out: AK-based Prestwick library screening result, E. faecium (fold increase in extracellular AK activity)): 1.1
fold induction at 50 µM ([5]; planktonic E. coli, positive cutoff 3-fold increase, read-out: AK-based Prestwick library screening result, E. coli (fold increase in extracellular AK activity)): 1.1
fold induction at 50 µM ([6]; planktonic S. aureus, 50 μM final drug concentration, positive cutoff 3-fold increase, read-out: AK-based Prestwick library screening result, S. aureus (fold increase in extracellular AK activity)): 0.7
fold induction at 50 µM ([7]; planktonic P. aeruginosa, 50 μM final drug concentration, positive cutoff 3-fold increase, read-out: AK-based Prestwick library screening result, P. aeruginosa (fold increase in extracellular AK activity)): 1.1
